Measured values taken from publication PMC11277489, “Novel Piperazine Derivatives of Vindoline as Anticancer Agents” (International Journal of Molecular Sciences, 2024).

Experiments:
[1] = system: T-47D; test: NCI60 one-dose screen (10 μM), Breast Cancer; format: cell-based; conditions: Homo sapiens, T47D; 10 μM; T-47D, Breast Cancer; read-out: Growth percent rate
[2] = system: SK-OV-3; test: NCI60 one-dose screen (10 μM), Ovarian Cancer; format: cell-based; conditions: Homo sapiens; 10 μM; SK-OV-3, Ovarian Cancer; read-out: Growth percent rate
[3] = system: NCI/ADR-RES; test: NCI60 five-dose screen, Ovarian Cancer; format: cell-based; conditions: Homo sapiens, Ovarian Cancer, five-dose screen, read-out: GI50
[4] = system: SR; test: NCI60 one-dose screen (10 μM), Leukemia; format: cell-based; conditions: Homo sapiens, 10 μM, Leukemia, read-out: Growth percent rate
[5] = system: HCC-2998; test: NCI60 five-dose screen, Colon Cancer; format: cell-based; conditions: Homo sapiens; HCC-2998, Colon Cancer; five-dose screen; read-out: GI50
[6] = system: DU-145; test: NCI60 one-dose screen (10 μM), Prostate Cancer; format: cell-based; conditions: Homo sapiens; 10 μM; DU-145, Prostate Cancer; read-out: Growth percent rate
[7] = system: K-562; test: NCI60 five-dose screen, Leukemia; format: cell-based; conditions: Homo sapiens, K562; K-562, Leukemia; five-dose screen; read-out: GI50
[8] = system: NCI-H522; test: NCI60 five-dose screen, Non-small Cell Lung Cancer; format: cell-based; conditions: Homo sapiens; NCI-H522, Non-small Cell Lung Cancer; five-dose screen; read-out: GI50
[9] = system: SNB-75; test: NCI60 five-dose screen, CNS Cancer; format: cell-based; conditions: Homo sapiens; SNB-75, CNS Cancer; five-dose screen; read-out: GI50
[10] = system: NCI-H226; test: NCI60 one-dose screen (10 μM), Non-small Cell Lung Cancer; format: cell-based; conditions: Homo sapiens; 10 μM; NCI-H226, Non-small Cell Lung Cancer; read-out: Growth percent rate
[11] = system: OVCAR-5; test: NCI60 one-dose screen (10 μM), Ovarian Cancer; format: cell-based; conditions: Homo sapiens; 10 μM; OVCAR-5, Ovarian Cancer; read-out: Growth percent rate
[12] = system: MDA-MB-435; test: NCI60 five-dose screen, Melanoma; format: cell-based; conditions: Homo sapiens; MDA-MB-435, Melanoma; five-dose screen; read-out: GI50
[13] = system: UO-31; test: NCI60 one-dose screen (10 μM), Renal Cancer; format: cell-based; conditions: Homo sapiens; 10 μM; UO-31, Renal Cancer; read-out: Growth percent rate
[14] = system: 60 human tumor cell lines (NCI60); test: NCI60 one-dose screen (10 μM), whole panel; format: cell-based
[15] = system: EKVX; test: NCI60 five-dose screen, Non-small Cell Lung Cancer; format: cell-based; conditions: Homo sapiens, Non-small Cell Lung Cancer, five-dose screen, read-out: GI50
[16] = system: HOP-92; test: NCI60 five-dose screen, Non-small Cell Lung Cancer; format: cell-based; conditions: Homo sapiens; HOP-92, Non-small Cell Lung Cancer; five-dose screen; read-out: GI50
[17] = system: T-47D; test: NCI60 five-dose screen, Breast Cancer; format: cell-based; conditions: Homo sapiens, T47D; T-47D, Breast Cancer; five-dose screen; read-out: GI50
[18] = system: OVCAR-8; test: NCI60 five-dose screen, Ovarian Cancer; format: cell-based; conditions: Homo sapiens; OVCAR-8, Ovarian Cancer; five-dose screen; read-out: GI50
[19] = system: MDA-MB-468; test: NCI60 one-dose screen (10 μM), Breast Cancer; format: cell-based; conditions: Homo sapiens; 10 μM; MDA-MB-468, Breast Cancer; read-out: Growth percent rate
[20] = system: IGROV1; test: NCI60 five-dose screen, Ovarian Cancer; format: cell-based; conditions: Homo sapiens, IGROV-1; IGROV1, Ovarian Cancer; five-dose screen; read-out: GI50
[21] = system: RXF 393; test: NCI60 one-dose screen (10 μM), Renal Cancer; format: cell-based, human; conditions: Homo sapiens; 10 μM; RXF 393, Renal Cancer; read-out: Growth percent rate
[22] = system: TK-10; test: NCI60 five-dose screen, Renal Cancer; format: cell-based; conditions: Homo sapiens; TK-10, Renal Cancer; five-dose screen; read-out: GI50
[23] = system: U251; test: NCI60 five-dose screen, CNS Cancer; format: cell-based; conditions: Homo sapiens, U-251; U251, CNS Cancer; five-dose screen; read-out: GI50
[24] = system: NCI-H23; test: NCI60 five-dose screen, Non-small Cell Lung Cancer; format: cell-based; conditions: Homo sapiens; NCI-H23, Non-small Cell Lung Cancer; five-dose screen; read-out: GI50
[25] = system: UACC-257; test: NCI60 five-dose screen, Melanoma; format: cell-based; conditions: Homo sapiens; UACC-257, Melanoma; five-dose screen; read-out: GI50
[26] = system: LOX IMVI; test: NCI60 one-dose screen (10 μM), Melanoma; format: cell-based, human; conditions: Homo sapiens; 10 μM; LOX IMVI, Melanoma; read-out: Growth percent rate
[27] = system: NCI-H460; test: NCI60 five-dose screen, Non-small Cell Lung Cancer; format: cell-based; conditions: Homo sapiens; NCI-H460, Non-small Cell Lung Cancer; five-dose screen; read-out: GI50
[28] = system: NCI/ADR-RES; test: NCI60 one-dose screen (10 μM), Ovarian Cancer; format: cell-based; conditions: Homo sapiens, 10 μM, Ovarian Cancer, read-out: Growth percent rate
[29] = system: SF-268; test: NCI60 five-dose screen, CNS Cancer; format: cell-based; conditions: Homo sapiens; SF-268, CNS Cancer; five-dose screen; read-out: GI50
[30] = system: OVCAR-4; test: NCI60 five-dose screen, Ovarian Cancer; format: cell-based; conditions: Homo sapiens; OVCAR-4, Ovarian Cancer; five-dose screen; read-out: GI50
[31] = system: BT-549; test: NCI60 one-dose screen (10 μM), Breast Cancer; format: cell-based; conditions: Homo sapiens; 10 μM; BT-549, Breast Cancer; read-out: Growth percent rate
[32] = system: HT29; test: NCI60 five-dose screen, Colon Cancer; format: cell-based; conditions: Homo sapiens, HT-29; HT29, Colon Cancer; five-dose screen; read-out: GI50
[33] = system: NCI-H226; test: NCI60 five-dose screen, Non-small Cell Lung Cancer; format: cell-based; conditions: Homo sapiens; NCI-H226, Non-small Cell Lung Cancer; five-dose screen; read-out: GI50
[34] = system: MDA-MB-231/ATCC; test: NCI60 one-dose screen (10 μM), Breast Cancer; format: cell-based, human; conditions: Homo sapiens; 10 μM; MDA-MB-231/ATCC, Breast Cancer; read-out: Growth percent rate
[35] = system: LOX IMVI; test: NCI60 five-dose screen, Melanoma; format: cell-based; conditions: Homo sapiens, Melanoma, five-dose screen, read-out: GI50
[36] = system: CAKI-1; test: NCI60 five-dose screen, Renal Cancer; format: cell-based; conditions: Homo sapiens; CAKI-1, Renal Cancer; five-dose screen; read-out: GI50
[37] = system: HL-60(TB); test: NCI60 five-dose screen, Leukemia; format: cell-based; conditions: Homo sapiens; HL-60(TB), Leukemia; five-dose screen; read-out: GI50
[38] = system: MALME-3M; test: NCI60 five-dose screen, Melanoma; format: cell-based; conditions: Homo sapiens; MALME-3M, Melanoma; five-dose screen; read-out: GI50
[39] = system: SF-268; test: NCI60 one-dose screen (10 μM), CNS Cancer; format: cell-based; conditions: Homo sapiens; 10 μM; SF-268, CNS Cancer; read-out: Growth percent rate
[40] = system: SK-MEL-5; test: NCI60 five-dose screen, Melanoma; format: cell-based; conditions: Homo sapiens; SK-MEL-5, Melanoma; five-dose screen; read-out: GI50
[41] = system: OVCAR-4; test: NCI60 one-dose screen (10 μM), Ovarian Cancer; format: cell-based; conditions: Homo sapiens; 10 μM; OVCAR-4, Ovarian Cancer; read-out: Growth percent rate
[42] = system: HCT-15; test: NCI60 five-dose screen, Colon Cancer; format: cell-based; conditions: Homo sapiens; HCT-15, Colon Cancer; five-dose screen; read-out: GI50
[43] = system: UACC-62; test: NCI60 one-dose screen (10 μM), Melanoma; format: cell-based; conditions: Homo sapiens; 10 μM; UACC-62, Melanoma; read-out: Growth percent rate

Work on `CCC12C=CCN3CCC4(c5cc(NC(=O)CN6CCN(C(c7ccc(F)cc7)c7ccc(F)cc7)CC6)c(OC)cc5N(C)C4C(O)(C(=O)OC)C1OC(C)=O)C32` (centres unmarked) [Compound 20] yielded an activity at 10 µM [1] of 10.2%, an activity at 10 µM [2] of 45.4% and a GI50 [3] of 4.47 µM. For the same compound, the activity at 10 µM [4] was 0.34%, the GI50 [5] was 3.89 µM and the activity at 10 µM [6] was 37.1%. It also gave a GI50 [7] of 3.16 µM, a GI50 [8] of 10.2 µM and a GI50 [9] of 1.82 µM. For the same compound, the activity at 10 µM [10] was 24.1%, the activity at 10 µM [11] was 66.9% and the GI50 [12] was 3.89 µM. For the same compound, the activity at 10 µM [13] was 27.2%, the “antiproliferative effect (in words)” value ([14]; 10 μM one-dose, NCI60) was “moderate antiproliferative activity on some colon, CNS, and melanoma cell lines” and the activity at 10 µM ([14]; 10 μM, mean over 60 human cancer cell lines, read-out: Growth percent rate, Mean) was 12.2%. The GI50 [15] was 4.07 µM, the GI50 [16] was 5.01 µM and the GI50 [17] was 3.55 µM. The GI50 [18] was 7.59 µM, the activity at 10 µM [19] was 10.9% and the GI50 [20] was 7.94 µM. The activity at 10 µM [21] was -44%, the GI50 [22] was 7.59 µM and the GI50 [23] was 6.03 µM. It also gave a GI50 [24] of 6.76 µM, a GI50 [25] of 5.25 µM and an activity at 10 µM [26] of -61%. The GI50 [27] was 3.16 µM, the activity at 10 µM [28] was 20.9% and the GI50 [29] was 5.13 µM. For the same compound, the GI50 [30] was 3.31 µM, the activity at 10 µM [31] was -37.5% and the GI50 [32] was 2.88 µM. The GI50 [33] was 6.31 µM, the activity at 10 µM [34] was -4.47% and the GI50 [35] was 3.24 µM. The GI50 [36] was 3.16 µM, the GI50 [37] was 2.19 µM and the GI50 [38] was 8.13 µM. For the same compound, the activity at 10 µM [39] was 28.1%, the GI50 [40] was 2.34 µM and the activity at 10 µM [41] was 31.4%. For the same compound, the GI50 [42] was 3.55 µM and the activity at 10 µM [43] was 28.5%.
